In patent US4563465A, “Treatment of migraine with substituted tropyl benzoate derivatives” (Merrell Dow Pharmaceuticals Inc., priority 1981, dated 1986):
Read-outs that look alike come from different tables or passages of the source.

Columns and labels:
mouse and rat = test: Acute toxicity (LD50) in the mouse and rat, overall statement; type: in vivo
[1] = test system: guinea-pig ileum, histamine; test: Selectivity: inhibition of response to histamine, guinea-pig ileum; type: biochemical; conditions: agonist histamine, read-out: concentration to inhibit standard response to stimulants by 50% (IC50)
Text: (§1) A selection of classical in vitro pharmacological test preparations (rat uterus, rat fundus, guinea-pig ileum, guinea-pig taenia caeci) were set up according to well-established procedures (see "Pharmacological Experiments on Isolated Preparations" Staff of the Department of Pharmacology, University of Edinburgh, Livingstone, Edinburgh 1970). Various spasmogens were used to elicit contraction of these tissues though mechanisms other than the 5-HT "M" receptor. The concentrations of tropyl 3,5-dimethoxybenzoate (A), tropyl 3,5-dimethylbenzoate (B) and tropyl 3,5-dichlorobenzoate (C) which reduced the effects of a submaximal dose of agonist by 50% were determined (IC50). The results are set forth in Table VI below in which the compounds are identified by the reference letters used above.

[2] = test system: guinea-pig ileum, acetylcholine; test: Selectivity: inhibition of response to acetylcholine or carbachol, guinea-pig ileum; type: biochemical; conditions: read-out: concentration to inhibit standard response to stimulants by 50% (IC50)
Text: as §1
**Carbachol agonist instead of acetylcholine

rat uterus, 5-HT = test: Selectivity: inhibition of response to 5-HT, rat uterus; type: biochemical; conditions: agonist 5-HT, read-out: concentration to inhibit standard response to stimulants by 50% (IC50)
Text: as §1

[3] = test system: patients with migraine or cluster headaches; test: Pilot study of tolerance and efficacy, intravenous, in patients with migraine or cluster headaches; type: in vivo, human (patients); conditions: for headache response: Patient No. 6
Protocol: This study was designed to evaluate tolerance and, if possible, efficacy of intravenous tropyl 3,5-dichlorobenzoate in patients with migraine or cluster headaches.
Eight patients (4 males), aged 27-47 with known headache disorders of 5-27 years duration (see Table VII) took part in the study but Patients Nos. 2 and 4 had cluster not migraine headaches and the cause of headaches in Patient No. 6 was unknown.
Tropyl 3,5-dichlorobenzoate was provided as a sterile solution, 1 mg/ml; the desired dose to be diluted in 10 ml normal saline for intravenous infusion over a 2 minute period. No other therapy was taken for at least 24 hours before treatment or during the course of therapy.
Doses as high as 14 mg/day and 9 mg single dose were administered without any signs of intolerance.

rat fundus, 5-HT = test: Selectivity: inhibition of response to 5-HT, rat fundus; type: biochemical; conditions: agonist 5-HT, read-out: concentration to inhibit standard response to stimulants by 50% (IC50)
Text: as §1

[4] = test system: guinea-pig taenia caeci, calcium; test: Selectivity: inhibition of response to calcium, guinea-pig taenia caeci; type: biochemical; conditions: agonist calcium, guinea-pig taenia caeci in potassium depolarized Tyrode solution; read-out: concentration to inhibit standard response to stimulants by 50% (IC50)
Text: as §1
*In potassiumdepolarized Tyrode solution

[5] = test system: 5-HT (Von Bezold-Jarisch reflex); test: Von Bezold-Jarisch reflex evoked by i.v. 5-HT in the anaesthetized rat, antagonism; type: in vivo, rat (male Sprague-Dawley); conditions: for ED50 / minimal effective dose: iv; for ED50: read-out: ED50 (inhibits the response to 5-HT by 50%); for minimal effective dose: read-out: threshold dose (just inhibits the response to 5-HT); for potency relative to metoclopramide: Von Bezold-Jarisch reflex, comparative test
Text: The activity of these compounds against 5-HT can be assessed in vivo by measurement of the effect of the compound on the Von Bezold-Jarisch Reflex induced by 5-HT injected intravenously into the rat (A.S. Paintal, Physiol. Rev. 53, 159-227, 1973). The transient cardiac slowing arises from an increased […] vagus activity arising from stimulation by 5-HT of sensory afferent fibres in and around the heart (see Example 3).
Antagonism of the Von Bezold-Jarisch reflex evoked by 5-HT in the anaesthetized rat was measured for tropyl 3,5-dimethoxybenzoate (A), tropyl 3,5-dimethylbenzoate (B) and tropyl 3,5-dichlorobenzoate (C) using the following method.
Male Sprague-Dawley rats weighing 250-300 g are anaesthetized with urethane, 1.25 g/kg injected intraperitoneally and set up for recording blood pressure and heart rate as described in J. R. Fozard et al, J. Cardiovas. Pharmacol. 2, 229-245 (1980). A submaximal dose of 5-HT ([…]) is given repeatedly into the cannulated jugular vein and changes in heart rate are quantified. Antagonists are given intravenously and the doses required to just inhibit the response to 5-HT (threshold dose) or to inhibit the response to 5-HT by 50% (ED50) are determined.

rat uterus, oxytocin = test: Selectivity: inhibition of response to oxytocin, rat uterus; type: biochemical; conditions: agonist oxytocin, read-out: concentration to inhibit standard response to stimulants by 50% (IC50)
Text: as §1

[6] = test system: rat fundus, acetylcholine; test: Selectivity: inhibition of response to acetylcholine, rat fundus; type: biochemical; conditions: agonist acetylcholine, read-out: concentration to inhibit standard response to stimulants by 50% (IC50)
Text: as §1

acute migraine attack = conditions: slow intravenous injection, 10 mg; J. B. Hughes 1977; cited from earlier work
[7] = Patient 6, after 4 mg dose i.v.

| Structure (SMILES) | toxicity as shown by LD50 values (mouse and rat) | IC50 [1] | IC50 ([2]; agonist acetylcholine) | IC50 (rat uterus, 5-HT) | IC50 (rat fundus, 5-HT) | IC50 [4] | ED50 ([5]; Rattus norvegicus) | minimal effective dose ([5]; Rattus norvegicus) | potency relative to metoclopramide [5] | IC50 (rat uterus, oxytocin) | IC50 [6] | also measured |
| --- | --- | --- | --- | --- | --- | --- | --- | --- | --- | --- | --- | --- |
| CN1C2CCC1CC(OC(=O)c1cc(Cl)cc(Cl)c1)C2 (stereo not shown) [C, tropyl 3,5-dichlorobenzoate] | relatively non-toxic | 3.68 µM | 8.05 µM | 25.4 µM | > 50.9 µM | 28.6 µM | 22 ± 3.2 µg/kg | 7.72 ± 0.63 µg/kg | many times more potent than metoclopramide | > 50.9 µM | 12.4 µM | response ([3]; Patient 1, i.v. 1 mg, then 1 hour later, 2 mg): no effect on headache or nausea; response ([3]; Patient 2 (cluster), i.v. 1 mg): no effect; response ([3]; Patient 4 (cluster), i.v. 3 mg): no effect; effect of increased doses ([3]; Patient 6, 5 mg bid × 2 days, then 6 mg bid × 11 days i.v.): no greater effect; duration of reduction of pain intensity [3, 7]: 4 to 8 h; time to reduction of pain intensity [3, 7]: ≤ 30 min; reduction of pain intensity ([3]; Patient 6, within 30 minutes after 4 mg dose i.v.): 70-80%; response ([3]; Patient 7, i.v. 3 mg × 1 day, then 5 mg × 2 days, then 7 mg × 1 day): no effect; response during increasing doses ([3]; Patient 8, i.v. 6 mg × 1 day, 7 mg × 2 days, 9 mg × 1 day): maintained during increasing doses; reduction of pain ([3]; Patient 8, with 3 mg i.v.): about 30%; headache response ([3]; 3 mg single doses i.v.): slight reduction in their bilateral headache; headache response ([3]; 4 mg bid i.v.): further amelioration; time after stopping therapy to return of headaches to pretreatment intensity ([3]; Patient No. 8): 6 to 7 days; symptom response ([3]; Patient No. 8, first dose of 3 mg i.v.): decrease in all symptoms; repeated dose well tolerated (highest) ([3]; i.v. b.i.d., patients with headaches): up to 7 mg; cumulative dose well tolerated (highest) ([3]; i.v., over 18 days): 177 mg; dose per day administered without any signs of intolerance (highest) ([3]; i.v., patients): 14 mg/day; patients with marked diminution of headache and associated symptoms ([3]; patients treated with repeated doses (Patients Nos. 6 and 8), i.v.): two of the three patients; pain intensity and associated symptoms ([3]; some patients treated with doses of 3 mg or greater, i.v.): ameliorated |
| CCN(CC)CCNC(=O)c1cc(Cl)c(N)cc1OC [metoclopramide, reference compound] |  |  |  |  |  |  |  |  |  |  |  | relief of acute migraine attack (acute migraine attack): immediate relief of acute migraine attack; minimal effective dose ([5]; antagonist i.v., anaesthetized rat): 233 ± 66.3 µg/kg |
| COc1cc(OC)cc(C(=O)OC2CC3CCC(C2)N3C)c1 (stereo not shown) [A, tropyl 3,5-dimethoxybenzoate] | relatively non-toxic | 6.61 µM | 9.56 µM | > 52.5 µM | 40 µM | 36.1 µM | 13.7 ± 1.2 µg/kg | 6.96 ± 0.9 µg/kg | many times more potent than metoclopramide | > 52.5 µM | 13.1 µM |  |
| Cc1cc(C)cc(C(=O)OC2CC3CCC(C2)N3C)c1 (stereo not shown) [B, tropyl 3,5-dimethylbenzoate] | relatively non-toxic |  |  |  |  | 34.2 µM | 6.07 ± 0.72 µg/kg | 3.57 ± 0.33 µg/kg | many times more potent than metoclopramide |  |  | IC50 ([2]; carbachol agonist instead of acetylcholine): 9.59 µM |
